Measurements from patent US8846697B2, “Purine analogs” (The Regents of the University of California, priority 2006, dated 2014).
pEC50: −log10 of the molar value. “Also recorded” adds a separate entry of the source.

System: human PBMC
Assay: Interferon α induction in human PBMC (Luminex, Beadlyte Human MultiCytokine kit)
Format: cell-based
Set-up: key to IFN-α (Interferon concentration): b: Below lower limit of detection
Settings: for pEC50 / IFN-α (Interferon concentration) / interferon inducing activity (in words): human PBMC; for pEC50: 10 μM to 10 nM, composited from three donors, read-out: EC50 (concentration at which 50% of the maximal IFN concentration was achieved); for pEC50 / IFN-α (Interferon concentration): 24 hr; for IFN-α (Interferon concentration): all compounds tested at 1 μM, averages from four donors; for interferon inducing activity (in words): 1 μM
Protocol: Reaction of 8-bromo compound 5 with NaN3 followed by Raney-Ni catalyzed hydrogenation furnished compound 6 in good yield. Acylation of compound 6 with ethylchloroformate led to the ethylcarbamate, compound 27, which was converted to the ureido compound 28 by reaction with methanolic ammonia. All compounds were tested for their ability to induce the production of interferon α in human PBMC compared to compound 4 as a positive control. Human blood samples were obtained from the San Diego Blood Bank. Peripheral blood mononuclear cells (PBMC) were isolated by density-gradient centrifugation over Ficoll-Hypaque (Amersham Pharmacia). Cells were resuspended in RPMI 1640 medium, supplemented with 10% fetal bovine serum (FBS), L-glutamine, and penicillin/streptomycin (RP10; Invitrogen, Carlsbad, Calif.), plated at 10^6 cells/well in 96-well plates, and stimulated with compounds at 1 μM final concentration for 24 hr. at 37° C., 5% CO2. The IFN-α level in the supernatants was measured by Luminex (Austin, Tex.) using the Beadlyte Human MultiCytokine kit (Upstate, Charlottesville, Va.), according to the manufacturer's instructions. Results presented in Table 2 are averages of data composited from four different donors. […] Detailed analytical data for these compounds is as follows:
For this dose response study, cells were treated with the listed compounds at concentrations ranging from 10 μM to 10 nM for 24 hr. The data shown in Table 3 are composited from three different donors, and a non-linear regression curve fit analysis was performed using GraphPad Prism software version 4.0b (San Diego, Calif.) to determine the EC50.

COCCOc1nc(N)c2[nH]c(=O)n(Cc3ccccc3)c2n1 [Compound 4, 9-benzyl-2-methoxyethoxy-8-oxoadenine, reference compound]
pEC50: 6.85
IFN-α (Interferon concentration): 418.00 pg/mL

COCCOc1nc(N)c2nc(N)n(Cc3ccccc3)c2n1 [Compound 6]
interferon inducing activity (in words): completely removed all interferon inducing activity
pEC50: < 5.00
IFN-α (Interferon concentration): 35.25 pg/mL

CNc1nc2c(N)nc(OCCOC)nc2n1Cc1ccccc1 [Compound 7]
IFN-α (Interferon concentration): b

CCNc1nc2c(N)nc(OCCOC)nc2n1Cc1ccccc1 [Compound 8]
interferon inducing activity (in words): most active; also recorded: superior to the others
pEC50: 5.35
IFN-α (Interferon concentration): 80.30 pg/mL

CCCNc1nc2c(N)nc(OCCOC)nc2n1Cc1ccccc1 [Compound 9]
IFN-α (Interferon concentration): 8.80 pg/mL

CCCCNc1nc2c(N)nc(OCCOC)nc2n1Cc1ccccc1 [Compound 10]
IFN-α (Interferon concentration): 0.73 pg/mL

CCN(CC)c1nc2c(N)nc(OCCOC)nc2n1Cc1ccccc1 [Compound 11]
interferon inducing activity (in words): activity is lost
IFN-α (Interferon concentration): b

COCCOc1nc(N)c2nc(NCCO)n(Cc3ccccc3)c2n1 [Compound 12]
interferon inducing activity (in words): most active; also recorded: activity was enhanced somewhat
pEC50: 5.27
IFN-α (Interferon concentration): 99.21 pg/mL

COCCOc1nc(N)c2nc(N(CCO)CCO)n(Cc3ccccc3)c2n1 [Compound 13]
interferon inducing activity (in words): abrogated activity
IFN-α (Interferon concentration): 0.82 pg/mL

COCCOc1nc(N)c2nc(NCCCO)n(Cc3ccccc3)c2n1 [Compound 14]
interferon inducing activity (in words): most active
interferon inducing activity (in words) (listed as hydroxypropyl): about equally active
pEC50: 5.49
IFN-α (Interferon concentration): 113.18 pg/mL

COCCOc1nc(N)c2nc(NCCCCO)n(Cc3ccccc3)c2n1 [Compound 15]
interferon inducing activity (in words): devoid of activity
IFN-α (Interferon concentration): b

COCCOc1nc(N)c2nc(NCC3CCCO3)n(Cc3ccccc3)c2n1 (stereo not drawn) [Compound 16]
IFN-α (Interferon concentration): b

COCCOc1nc(N)c2nc(NCc3ccccc3)n(Cc3ccccc3)c2n1 [Compound 17]
IFN-α (Interferon concentration): b

COCCOc1nc(N)c2nc(NCCc3ccccc3)n(Cc3ccccc3)c2n1 [Compound 18]
interferon inducing activity (in words): not active
IFN-α (Interferon concentration): 1.33 pg/mL

COCCOc1nc(N)c2nc(NCCN3CCOCC3)n(Cc3ccccc3)c2n1 [Compound 19]
interferon inducing activity (in words): most active; also recorded: highest activity
pEC50: 6.10
IFN-α (Interferon concentration): 110.48 pg/mL
EC50 (in words) (interferon induction in human PBMC): submicromolar range

COCCOc1nc(N)c2nc(NCCN3CCCCC3)n(Cc3ccccc3)c2n1 [Compound 20]
interferon inducing activity (in words): not active
IFN-α (Interferon concentration): b

COCCNc1nc2c(N)nc(OCCOC)nc2n1Cc1ccccc1 [Compound 21]
IFN-α (Interferon concentration): b

COCCOc1nc(N)c2nc(NCCN(CCO)CCO)n(Cc3ccccc3)c2n1 [Compound 22]
IFN-α (Interferon concentration): b

COCCOc1nc(N)c2nc(NCCCN(CCO)CCO)n(Cc3ccccc3)c2n1 [Compound 23]
IFN-α (Interferon concentration): b

COCCOc1nc(N)c2nc(NCC3CCCCC3)n(Cc3ccccc3)c2n1 [Compound 24]
IFN-α (Interferon concentration): b

COCCOc1nc(N)c2nc(N3CCOCC3)n(Cc3ccccc3)c2n1 [Compound 25]
interferon inducing activity (in words): not active
IFN-α (Interferon concentration): 0.41 pg/mL

COCCOc1nc(N)c2nc(NCCc3c[nH]c4ccccc34)n(Cc3ccccc3)c2n1 [Compound 26]
interferon inducing activity (in words): not active
IFN-α (Interferon concentration): b

CCOC(=O)Nc1nc2c(N)nc(OCCOC)nc2n1Cc1ccccc1 [Compound 27]
IFN-α (Interferon concentration): 1.03 pg/mL

COCCOc1nc(N)c2nc(NC(N)=O)n(Cc3ccccc3)c2n1 [Compound 28]
IFN-α (Interferon concentration): b

COCCOc1nc(N)c2nc(NN)n(Cc3ccccc3)c2n1 [Compound 29]
IFN-α (Interferon concentration): 0.21 pg/mL
